According to EP2238984A1, “Caspasin inhibitor peptides” (INSTITUT NATIONAL DE LA RECHERCHE AGRONOMIQUE (INRA), priority 2009, dated 2010):

Tested on: LNCaP human prostate cancer cells
Assay: BrdU cell proliferation assay
Assay type: cell-based
Details: BrdU incorporation; for cell proliferation: LNCaP cells incubated with peptide, absorbance at 450 nm, at a concentration as lowest as 1 µM (Figure 1)
Description: Peptides of sequences SEQ ID NO: 48 and SEQ ID NO: 49 were used in the experiments. They were resuspended in dimethylsulfoxide (DMSO) to obtain a concentration of about 50 mM. They were then diluted in fetal calf serum (FCS) before being added to culture cells at the indicated concentrations.
FGC clone LNCaP human prostate cancer cells, commercialized by ATCC-LGC (Molsheim, France; ATCC Number: CRL-1740) were used.
The cells were incubated for 48 hours with the caspasin inhibitor peptides at the following concentrations: 0.1, 0.3, 0.9, 3, 10, 20, 30, 60 and 90 µM.
Cell proliferation was then assessed by quantifying the DNA precursor bromo-deoxyuridine (BrdU). This quantification was performed using the 5'-Bromo-2'-deoxy-uridine Labeling and Detection Kit (Roche) according to the manufacturer's instructions.
LNCaP prostatic cells were incubated for 24 hours in a 96-well plastic plate containing 200 µl RPMI 1640 medium complemented with 1.5 g/I sodium carbonate, 4.5 g/I glucose, 10 mM HEPES, 1.0 mM sodium pyruvate, 10% foetal bovine serum (FBS) and antibiotics. Peptides were pre-incubated for 1 h30 in 20 µl of FBS at 37°C, then added to 180 µl of RPMI. Medium from plates was released and the medium containing peptides was added to the cells. The cells were then cultured for another 24 hours. BrdU incorporation was then determined by measuring the absorbance at 450 nm on an ELISA plate reader.

| Substance | cell proliferation | concentration of peptide at which a plateau was reached (cell proliferation) (LNCaP cells, concentrations tested 0.1-90 µM (Figure 1)) [µM] |
| --- | --- | --- |
| SEQ ID NO: 49: caspasin inhibitor peptide originating from a caspasin reactive centre loop; sequence only in the sequence listing (FLMMITNKA) | drastic decrease of the cell proliferation | 3 |
| SEQ ID NO: 48: caspasin inhibitor peptide originating from a caspasin reactive centre loop; sequence only in the sequence listing (ATGIGI) | drastic decrease of the cell proliferation |  |
